Earlier results in patent US20250049595A1, “ZOTAROLIMUS-ROSUVASTATIN ELUTING BIODEGRADABLE STENT” (priority 2023, published 2025).

Settings: targeted by typical daily dose between 5 and 40 mg

- plasma concentration: 0.5 ng/mL
Compound: CC(C)c1nc(N(C)S(C)(=O)=O)nc(-c2ccc(F)cc2)c1/C=C/[C@@H](O)C[C@@H](O)CC(=O)O [Rosuvastatin]
